Article PMC5974752, “Bax/Tubulin/Epithelial-Mesenchymal Pathways Determine the Efficacy of Silybin Analog HM015k in Colorectal Cancer Cell Growth and Metastasis” (Frontiers in Pharmacology, 2018)

What was measured:
HCT116 cells [1] = experiment: CellTiter-Glo luminescent assay (ATP content); assay type: cell-based; conditions: Homo sapiens, HCT-116, data not shown, read-out: IC50, ATP depletion
Experimental: Subsequently, we conducted experiments to determine if compound 15k produced a time-dependent effect on cell death. […] The HCT116 cells had intense fluorescence over time compared to the cells incubated with vehicle, with a significant difference in the number of dead cells after 24 h of incubation with 2 μM of 15k. […] The cytotoxicity of 15k and 15j in HCT116 cells were further determined using a more homogeneous CellTiter-Glo® luminescent cell based assay that measures the ATP content in the metabolically active cells.

HCT116 cells [2] = experiment: IncuCyte annexin V red real time apoptosis; assay type: cell-based, human
Experimental: (§1) For real time quantification of apoptosis induction, the fluorescent Caspase 3/7 and Annexin V red reagents, with an excitation maximum of 500 and 593 nm and an emission maximum of 530 and 614 nm, respectively, were used. The HCT116 cells were seeded at a density of 1,000 cell/well and allowed to grow overnight. The next day, compound 15k at 0, 2, 4, and 8μM was prepared and added, directly followed by the caspase 3/7 reagent at final concentration of 5μM or annexin V red reagent in final dilution of 1: 200. The cells were then incubated in IncuCyte Zoom live cell imaging and pictures were taken every 2 h for up to 50 h and analyzed using the integrated software. The IncuCyte® Caspase-3/7 apoptosis assay reagent couples the activated caspase-3/7 recognition motif (DEVD) to NucView™ 488, a DNA intercalating dye to enable quantification of apoptosis over time. Caspase-3/7 assay reagent is non-perturbing to cell growth and morphology. When added to cell culture medium, this inert, non-fluorescent substrate crosses the cell membrane, where it is cleaved by activated caspase-3/7, resulting in the release of the DNA dye and green fluorescent staining of nuclear DNA.

caspases 3 and 7 = experiment: IncuCyte caspase-3/7 real time apoptosis; assay type: cell-based, human
Experimental: as §1

Bak = experiment: Western blot in HCT116 cells; assay type: cell-based, human; conditions: 4 μM, overnight
Experimental: (§2) HCT116 cells were lysed to obtain cytoplasmic and nuclear protein fractions, according to the protocol used in previous publications (Alhadidi and Shah, [2017]). Briefly, the cells were seeded in and incubated with 15k for overnight at 4μM. The cells were washed using ice-cold PBS and scraped using a cell scraper and collected in 15ml tubes. The cells were centrifuged and the PBS was discarded and replaced with 400 μl of buffer A (10 mM HEPES, pH 7.9, 0.1 mM EDTA, 0.1 mM EGTA, 10 mM KCl, 1 mM dithiothreitol, and 0.5 mM phenylmethylsulfonyl fluoride) in each tube. The cells were allowed to swell under in the buffer for 15 min on ice. Subsequently, 0.1% Nonidet P-40 was added to each suspension for 1 min to disturb the plasma membrane. The nuclei were precipitated by centrifugation at 13,000 rpm for 1 min at 4°C. The cytoplasmic proteins were collected in the supernatant and stored at −80°C. Two hundred μl of Buffer B (20 mM HEPES, pH 7.9, 1 mM EDTA, 1 mM EGTA, 400 mM NaCl, 1 mM dithiothreitol, and 1 mM phenylmethylsulfonyl fluoride) was added to the pellets and left for 30 min on ice with periodic mixing. The samples were centrifuged at 13,000 rpm for 15 min at 4°C to obtain the nuclear fraction (supernatant). The bicinchoninic acid (BCA) quantification assay was used to determine the concentration of protein in the cell extracts. The Western blot was done as previously described (Tiwari et al., [2013]). Rabbit α-tubulin, 1:4,000 dilution, rabbit Bax (1:1,000), rabbit BAK (1:1,000), rabbit β-Catenin (1:4,000), rabbit DVL3 (1:4,000), mouse β-actin (1:5,000), E-cadherin (1:4,000), and N-cadherin (1:4,000), antibodies were used. Membranes were then washed and incubated for 1 h with horseradish peroxidase-labeled (HRP) anti-rabbit and anti-mouse secondary antibodies (1:5,000 dilutions). ChemiDoc Imaging Systems from Bio-Rad, (Hercules, California USA) was used to detect the blots. Finally, proteins were quantified using the image J software. Data were calculated as ratios to β-actin.

Bax (p21 and p18) = experiment: Western blot in HCT116 cells; assay type: cell-based, human; conditions: 4 μM, overnight, p < 0.001
Experimental: as §2

Bcl-2 = experiment: Western blot in HCT116 cells; assay type: cell-based, human; conditions: 4 μM, overnight, p < 0.05
Experimental: as §2

DVL3 = experiment: Western blot in HCT116 cells; assay type: cell-based, human; conditions: 4 μM, p < 0.01 vs vehicle
Experimental: as §2

E-cadherin = experiment: Western blot in HCT116 cells; assay type: cell-based, human; conditions: 4 μM, overnight
Experimental: as §2

N-cadherin = experiment: Western blot in HCT116 cells; assay type: cell-based, human; conditions: 4 μM, p < 0.01 vs control
Experimental: as §2

c-Myc = experiment: Western blot in HCT116 cells; assay type: cell-based, human; conditions: 4 μM, p < 0.01 vs control
Experimental: as §2

caspase 3 = experiment: Western blot in HCT116 cells; assay type: cell-based, human; conditions: 4 μM, p < 0.05 vs control
Experimental: as §2

cyclin B1 = experiment: Western blot in HCT116 cells; assay type: cell-based, human; conditions: 4 μM, p < 0.01
Experimental: as §2

α-tubulin = experiment: Western blot in HCT116 cells; assay type: cell-based, human; conditions: 4 μM, overnight, p < 0.01 vs vehicle
Experimental: as §2

LOVO cells = experiment: Transwell migration assay; assay type: cell-based, human; conditions: 2 and 4 μM, 24 h, vs vehicle
Experimental: The effect of compound 15k on the invasiveness of LOVO was tested using 24 trans-well inserts with an […]. The addition of the insert to the well forms two chambers (upper and lower), where the upper chamber was used to grow the cells on the porous membrane. The lower chamber was filled with 600 μl of cell-free DMEM medium. A 200 μl of cell suspension was added to each insert and allowed to attach for 1 h. The test compound was added in different concentrations and incubated with the cells for 24 h. […] Finally, the remaining migrated cells were fixed by methanol and dyed with 0.1% crystal violet dye and observed with an EVOS microscope. The number of migrated cells was counted and compared between the treated and control cells.

O=C(/C=C/c1cccc(OCc2ccccc2)c1)c1ccc(O)cc1 [Compound 15k]
IC50 (HCT116 cells [1]): 760 nM | annexin V red fluorescence over time (HCT116 cells [2]; 2, 4 or 8 μM, vs control): significantly increased annexin V red fluorescence | incubation time at which significant difference in annexin V fluorescence appeared (HCT116 cells [2]; vehicle vs 15k): 12 h | incubation time to induce apoptosis (caspase 3/7) (caspases 3 and 7; 2 μM): ≈ 24 h | incubation time to induce apoptosis (caspase 3/7) (caspases 3 and 7; 4 and 8 μM): ≈ 10 h | Bak levels (Bak): no significant effect | cleavage of Bax p21 to p18 (Bax (p21 and p18)): induced the cleavage of the protein Bax (p 21) | levels of Bcl-2 (Bcl-2): significantly decreased | levels of DVL3 (DVL3): significantly decreased | E-cadherin expression (Western blot) (E-cadherin): not significantly altered | level of N-cadherin (N-cadherin): significantly downregulated | levels of c-Myc protein (c-Myc): significant decrease | cleavage of total caspase 3 (caspase 3): induced the cleavage of total caspase | expression levels of cyclin B1 (cyclin B1): significant increase | expression of α-tubulin (α-tubulin): significant decrease | number of cells migrated through transwell (LOVO cells): significantly decreased the number of LOVO cells that migrated
